Measured values published in patent US20220380347A1, “INHIBITORS OF CYSTEINE PROTEASES AND METHODS OF USE THEREOF” (Pardes Biosciences, Inc., priority 2020, published 2022).
Read-outs that look alike come from different tables or passages of the source.

What was measured:
229E Mpro = 229E Mpro (Human coronavirus 229E, UniProt P0C6X1); assay: 229E Mpro enzymatic assay (standard methods, SARS-CoV2 Mpro assay given as exemplary); format: biochemical, human coronavirus (HCov) 229E
Outline: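 IC50 for 229E Mpro by standard methods; exemplary SARS-CoV-2 protocol used C-His6-tagged Mpro from E. coli, 25 nM enzyme, 25 μM substrate (Km 13.5 μM), in Tris-HCl pH 7.3, NaCl, EDTA, TCEP, 0.1% BSA. Inhibition normalised to no-compound and full-effect controls; four-parameter fit.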

[1] = target: COVID-19 (nCoV-2019, SARS-CoV2) Mpro (Severe acute respiratory syndrome coronavirus 2, UniProt P0DTD1); assay: COVID-19 (nCoV-2019, SARS-CoV2) Mpro enzymatic assay; format: biochemical; details: 25 nM Mpro, 25 μM substrate; read-out: COVID-19 Mpro IC50
HCoV 229E = HCoV 229E cytopathic effect (CPE) assay, CellTiter Glo; format: cell-based, human coronavirus (HCov) 229E; details: protection of virus-induced CPE
HCov OC43 = assay: HCoV OC43 cytopathic effect (CPE) assay, CellTiter Glo; format: cell-based, human coronavirus (HCov) OC43
[2] = test system: cells without virus infection; assay: Cytotoxicity in parallel to the 229E CPE assay, without virus infection, CellTiter Glo; details: read-out: 229E CC50; without virus infection
Procedure: (§1) Reagents and instruments used in this assay include luminescent cell viability assay kit CellTiter Glo (Promega) and Microplate Reader Synergy2 (BioTek).
(§2) The cytotoxicity of compounds was assessed under the same conditions, but without virus infection, in parallel. Cell viability was measured with CellTiter Glo. The antiviral activity and cytotoxicity of compounds were expressed as % Inhibition and % Viability, respectively, and calculated with formulas.

[3] = as above; details: 229E CC50, without virus infection
Procedure: as §1, §2

[4] = Betacoronavirus 1, OC43, read-out: OC43 IC50 (uM) MEDIAN, median

229E Mpro, sequence (P0C6X1 2966-3267): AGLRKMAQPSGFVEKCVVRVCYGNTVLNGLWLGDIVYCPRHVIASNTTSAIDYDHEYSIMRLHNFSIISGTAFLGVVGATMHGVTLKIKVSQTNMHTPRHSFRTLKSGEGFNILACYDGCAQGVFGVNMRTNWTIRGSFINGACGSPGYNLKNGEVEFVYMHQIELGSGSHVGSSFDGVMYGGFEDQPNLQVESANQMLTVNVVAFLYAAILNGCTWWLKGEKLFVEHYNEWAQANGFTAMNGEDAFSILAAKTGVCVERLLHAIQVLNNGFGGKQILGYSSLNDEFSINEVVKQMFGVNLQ

**Q.** Which EC50 (229E Mpro; 229E Mpro EC50) does the source give for `COc1cncc(C(C(=O)NC2CCCCC2)N(C(=O)[C@H]2C[C@@H](O)CN2C#N)c2ccc(C(C)(C)C)cc2)c1` (single isomer, unassigned) [679 Isomer 1] here?
**A.** Its EC50 is < 2000 nM.

**Q.** What about the IC50 [1] of the same compound?
**A.** The IC50 was < 2000 nM.

**Q.** What about the EC50 (HCoV 229E; unidentified human coronavirus) of the same compound?
**A.** Its EC50 is < 2000 nM.

**Q.** What about the IC50 (HCov OC43; [4]) of the same compound?
**A.** Its IC50 is < 2 µM.

**Q.** And the CC50 [2]?
**A.** Its CC50 is > 30000 nM.

**Q.** Which EC50 (229E Mpro; read-out: 229E Mpro EC50) does the source give for `COc1cncc(C(C(=O)NC2CCCCC2)N(C(=O)[C@H]2C[C@@H](O)CN2C#N)c2ccc(C(C)(C)C)cc2)c1` (single isomer, unassigned) [679 Isomer 2] here?
**A.** Its EC50 is < 2000 nM.

**Q.** And the IC50 [1]?
**A.** The IC50 was 10000 to 30000 nM.

**Q.** And the EC50 (HCoV 229E)?
**A.** The EC50 was 2000 to 10000 nM.

**Q.** And the IC50 (HCov OC43; read-out: OC43 IC50 (uM) MEDIAN, median)?
**A.** The IC50 was 2 to 10 µM.

**Q.** And the CC50 [2]?
**A.** Its CC50 is 10000 to 30000 nM.

**Q.** Which EC50 (229E Mpro; 229E Mpro EC50) does the source give for `C[C@@H]1C[C@H](C(=O)N(c2ccc(C(C)(C)C)cc2)C(C(=O)NC2CCCCC2)c2cccnc2)N(C#N)C1` (single isomer, unassigned) [Compound 232 Isomer 2] here?
**A.** The EC50 was < 2000 nM.

**Q.** What about the IC50 [1] of the same compound?
**A.** The IC50 was 2000 to 10000 nM.

**Q.** And the EC50 (HCoV 229E; unidentified human coronavirus)?
**A.** Its EC50 is < 2000 nM.

**Q.** What about the IC50 (HCov OC43; [4]) of the same compound?
**A.** Its IC50 is 2 to 10 µM.

**Q.** And the CC50 [3]?
**A.** Its CC50 is 10000 to 30000 nM.

**Q.** Which EC50 (229E Mpro; 229E Mpro EC50) does the source give for `CC1(C)C[C@H](C(=O)N(c2ccc(C(C)(C)C)cc2)C(C(=O)NC2CCCCC2)c2cccnc2)N(C#N)C1` (single isomer, unassigned) [Compound 268 Isomer 2] here?
**A.** Its EC50 is < 2000 nM.

**Q.** What about the IC50 [1] of the same compound?
**A.** Its IC50 is < 2000 nM.

**Q.** And the EC50 (HCoV 229E; unidentified human coronavirus)?
**A.** Its EC50 is < 2000 nM.

**Q.** What about the IC50 (HCov OC43; [4]) of the same compound?
**A.** Its IC50 is 2 to 10 µM.

**Q.** What about the CC50 [3] of the same compound?
**A.** Its CC50 is 10000 to 30000 nM.
